Laboratory results reported in patent US9174996B2, “Protein kinase inhibitors” (Astar Biotech LLC, priority 2012, dated 2015).

How the values were obtained:
K562 cells [1] = test: Cell death assay, Experiment 1 (live cells counted by trypan blue); format: cell-based; settings: Homo sapiens, 100 nM, 48 hours, read-out: % live cells (vs control)
K562 cells [2] = test: Cell death assay, Experiment 2 (IC50, live cells counted by trypan blue); format: cell-based; settings: Homo sapiens, 48 h
Method: K562 cells (2×10^5 cells/ml) were seeded in 24-well cell culture plate and treated with DMSO or agents. After treatment in the presence of DMSO or agents for 48 h, cells were collected by centrifuging at 500 g for 5 minutes, and then cells were resuspended in appropriate volume of PBS. 10 uL of cell suspension was mixed with 10 uL of trypan blue solution and live cells were counted by TC10 (Bio-Rad, Richmond, Calif.).

[3] = molecular target: Ba/F3 cells expressing BCR-ABL T315I (Homo sapiens, UniProt P00519, T315I, cells depend on it); test: MTT cell viability assay, Experiment 3; format: cell-based, murine; settings: Mean ± S.E.M, two independent experiments, read-out: IC50 cell viability, Ba/F3 cells T315I BCR-ABL
Source text: (§1) This study evaluated the effect of the pure optical isomers on human leukemia cell viability in vitro. […] Two BCR-ABL-positive human leukemia cell lines, K562 and KU812, were used in this study. Besides, Ba/F3 cell transfectants expressing native or T315I BCR-ABL, whose viability is dependent on ectopically expressed BCR-ABL, were also used in this work. Ba/F3 cells expressing BCR-ABL^T315I were used for testing the efficiency of tested compounds on point mutation BCR-ABL^T315I, which cause drug resistance to Imatinib (Gleevec). U937 and JURKAT, two BCR-ABL-negative human leukemia cell lines, were employed to test the selectivity of tested compounds.
(§2) Cells were seeded in 24-well plates, and treated with drugs at corresponding concentrations. Cell viability was measured using a MTT (3-(4,5-dimethylthiazol-2-yl)-2,5-diphenyltetrazolium bromide)-based colorimetric assay with a 96-well plate reader. IC50 values were calculated using the mean of two independent experiments.

[4] = molecular target: Ba/F3 cells expressing native BCR-ABL (Homo sapiens, UniProt P00519); test: MTT cell viability assay, Experiment 3; format: cell-based, murine; settings: Mean ± S.E.M, two independent experiments, read-out: IC50 cell viability, Ba/F3 cells Native BCR-ABL
Source text: as §1, §2

JURKAT = test: MTT cell viability assay, Experiment 3; format: cell-based; settings: Homo sapiens, MTT, Mean ± S.E.M, two independent experiments, read-out: IC50 cell viability, Non-CML leukemia cells JURKAT
Source text: (§3) This study evaluated the effect of the pure optical isomers on human leukemia cell viability in vitro. Ponatinib was used as the positive control. Two BCR-ABL-positive human leukemia cell lines, K562 and KU812, were used in this study. Besides, Ba/F3 cell transfectants expressing native or T315I BCR-ABL, whose viability is dependent on ectopically expressed BCR-ABL, were also used in this work. Ba/F3 cells expressing BCR-ABL^T315I were used for testing the efficiency of tested compounds on point mutation BCR-ABL^T315I, which cause drug resistance to Imatinib (Gleevec). U937 and JURKAT, two BCR-ABL-negative human leukemia cell lines, were employed to test the selectivity of tested compounds.
as §2

K562 = test: MTT cell viability assay, Experiment 3; format: cell-based; settings: Homo sapiens, K562; MTT, Mean ± S.E.M, two independent experiments; read-out: IC50 cell viability, CML leukemia cells K562
Source text: as §3, §2

KU812 = test: MTT cell viability assay, Experiment 3; format: cell-based; settings: Homo sapiens, KU812; MTT, Mean ± S.E.M, two independent experiments; read-out: IC50 cell viability, CML leukemia cells KU812
Source text: as §3, §2

U937 = test: MTT cell viability assay, Experiment 3; format: cell-based; settings: Homo sapiens, U-937; MTT, Mean ± S.E.M, two independent experiments; read-out: IC50 cell viability, Non-CML leukemia cells U937
Source text: as §3, §2

Compound | viability at 0.1 µM (K562 cells [1]) | IC50 (K562 cells [2]) | GI50 [3] | GI50 [4] | IC50 (JURKAT) | IC50 (K562) | IC50 (KU812) | IC50 (U937) | melting point
Cc1ccc(C(=O)Nc2ccc3c(c2)C(F)(F)CC3N2CCN(C)CC2)cc1C#Cc1cnc2cccnn12 (racemic) [Compound 36, N-(1,1-difluoro-2,3-dihydro-3-(4-methylpiperazin-1-yl)-1H-indan-6-yl)-3-(2-(imidazo[1,2-b]pyridazin-3-yl)ethynyl)-4-methylbenzamide] | 9.48% | 0.87 nM | 11 ± 0.2 nM | 2.7 ± 0.2 nM | 672 ± 77.6 nM | 0.5 ± 0.1 nM | 0.2 ± 0.1 nM | 608 ± 42.2 nM | –
Cc1ccc(C(=O)Nc2ccc3c(c2)C(F)(F)CC3N2CCN(C)CC2)cc1C#Cc1cnc(NC2CC2)nc1 (racemic) [Compound 37, 3-(2-(2-(Cyclopropylamino)pyrimidin-5-yl)ethynyl)-N-(1,1-difluoro-2,3-dihydro-3-(4-methylpiperazin-1-yl)-1H-indan-6-yl)-4-methylbenzamide] | 4.32% | 3.4 nM | 40 ± 9.6 nM | 9.3 ± 2.5 nM | 292 ± 8 nM | 1 ± 0.2 nM | 0.4 ± 0.1 nM | 191 ± 3.3 nM | 95 to 97 °C
CN1CCN(C2CC(F)(F)c3cc(NC(=O)c4ccc(Cl)c(C#Cc5cnc6cccnn56)c4)ccc32)CC1 (racemic) [Compound 38, N-(1,1-difluoro-2,3-dihydro-3-(4-methylpiperazin-1-yl)-1H-indan-6-yl)-3-(2-(imidazo[1,2-b]pyridazin-3-yl)ethynyl)-4-chlorobenzamide] | – | – | 10.1 ± 0.7 nM | 4.9 ± 2.1 nM | > 1000 nM | 0.8 ± 0.1 nM | 0.4 ± 0.1 nM | > 1000 nM | 140 to 142 °C
CN1CCN(C2CC(F)(F)c3cc(NC(=O)c4ccc(F)c(C#Cc5cnc6cccnn56)c4)ccc32)CC1 (racemic) [Compound 39, N-(1,1-difluoro-2,3-dihydro-3-(4-methylpiperazin-1-yl)-1H-indan-6-yl)-3-(2-(imidazo[1,2-b]pyridazin-3-yl)ethynyl)-4-fluorobenzamide] | – | – | 13 ± 0.9 nM | 3.6 ± 0.7 nM | > 1000 nM | 0.8 ± 0.2 nM | 0.5 ± 0.3 nM | 810 ± 39.2 nM | 118 to 121 °C
CN1CCN([C@@H]2CC(F)(F)c3cc(NC(=O)c4ccc(Cl)c(C#Cc5cnc6cccnn56)c4)ccc32)CC1 (single isomer, unassigned) [38-(R)] | – | – | > 100 nM | 78.2 ± 2.3 nM | > 1000 nM | 24.9 ± 9.9 nM | 11.9 ± 0.3 nM | > 1000 nM | –
CN1CCN([C@@H]2CC(F)(F)c3cc(NC(=O)c4ccc(F)c(C#Cc5cnc6cccnn56)c4)ccc32)CC1 (single isomer, unassigned) [39-(R)] | – | – | > 100 nM | 47.6 ± 4.5 nM | > 1000 nM | 6.4 ± 1.3 nM | 3.6 ± 0.8 nM | > 1000 nM | –
CN1CCN([C@H]2CC(F)(F)c3cc(NC(=O)c4ccc(F)c(C#Cc5cnc6cccnn56)c4)ccc32)CC1 (single isomer, unassigned) [39-(S)] | – | – | 6.5 ± 1.2 nM | 2.3 ± 0.5 nM | > 1000 nM | 0.3 ± 0.2 nM | 0.2 ± 0.1 nM | > 1000 nM | –
Cc1ccc(C(=O)Nc2ccc3c(c2)C(F)(F)C[C@H]3N2CCN(C)CC2)cc1C#Cc1cnc2cccnn12 [36-(R), (R)—N-(1,1-difluoro-2,3-dihydro-3-(4-methylpiperazin-1-yl)-1H-indan-6-yl)-3-(2-(imidazo[1,2-b]pyridazin-3-yl)ethynyl)-4-methylbenzamide] | – | – | > 100 nM | 31.2 ± 3.8 nM | > 1000 nM | 3.6 ± 0.1 nM | 2.7 ± 0.1 nM | > 1000 nM | –
Cc1ccc(C(=O)Nc2ccc3c(c2)C(F)(F)C[C@H]3N2CCN(C)CC2)cc1C#Cc1cnc(NC2CC2)nc1 [37-(R), (R)-3-(2-(2-(Cyclopropylamino)pyrimidin-5-yl)ethynyl)-N-(1,1-difluoro-2,3-dihydro-3-(4-methylpiperazin-1-yl)-1H-indan-6-yl)-4-methylbenzamide] | – | – | > 100 nM | 62.5 ± 6.9 nM | 400 ± 64.9 nM | 10.4 ± 1.5 nM | 5.2 ± 0.2 nM | 465 ± 9.7 nM | –
Cc1ccc(C(=O)Nc2ccc3c(c2)C(F)(F)C[C@@H]3N2CCN(C)CC2)cc1C#Cc1cnc(NC2CC2)nc1 [37-(S), (S)-3-(2-(2-(Cyclopropylamino)pyrimidin-5-yl)ethynyl)-N-(1,1-difluoro-2,3-dihydro-3-(4-methylpiperazin-1-yl)-1H-indan-6-yl)-4-methylbenzamide] | – | – | 12.4 ± 0.4 nM | 3.5 ± 0.9 nM | 280 ± 20 nM | 0.6 ± 0.1 nM | 0.2 ± 0.1 nM | 165 ± 15 nM | –
Cc1ccc(-c2nc3ccc(CN4CCN(C)CC4)cc3[nH]2)cc1C#Cc1cnc2cccnn12 [Compound 3, 3-(2-(2-Methyl-5-(6-((4-methylpiperazin-1-yl)methyl)-1H-benzo[d]imidazol-2-yl)phenyl)ethynyl)imidazo[1,2-b]pyridazine] | 11.3% | 3 nM | – | – | – | – | – | – | 114 to 115 °C
Cc1ccc(C(=O)Nc2ccc(CN3CCN(C)CC3)c(C(F)(F)F)c2)cc1C#Cc1ccc(NC2CC2)nn1 [Compound 12, 3-(2-(6-(Cyclopropylamino)pyridazin-3-yl)ethynyl)-4-methyl-N-(4-((4-methylpiperazin-1-yl)methyl)-3-(trifluoromethyl)phenyl)benzamide] | 10.1% | 4 nM | – | – | – | – | – | – | 68 to 69 °C
Cc1ccc(C(=O)Nc2ccc(CN3CCN(C)CC3)c(C(F)(F)F)c2)cc1C#Cc1ccc(NC2CCC2)nn1 [Compound 13, 3-(2-(6-(Cyclobutylamino)pyridazin-3-yl)ethynyl)-4-methyl-N-(4-((4-methylpiperazin-1-yl)methyl)-3-(trifluoromethyl)phenyl)benzamide] | 8.9% | 11 nM | – | – | – | – | – | – | 120 to 121 °C
Cc1cn(-c2cc(NC(=O)c3ccc(C)c(C#Cc4ccc(NC5CC5)nn4)c3)cc(C(F)(F)F)c2)cn1 [Compound 23, 3-(2-(6-(Cyclopropylamino)pyridazin-3-yl)ethynyl)-4-methyl-N-(3-(4-methyl-1H-imidazol-1-yl)-5-(trifluoromethyl)phenyl)benzamide] | 8.6% | 16 nM | – | – | – | – | – | – | 226 to 228 °C
Cc1cn(-c2ccc(NC(=O)c3ccc(C)c(C#Cc4cnc5cccnn45)c3)cc2C(F)(F)F)cn1 [Compound 30, 3-(2-(Imidazo[1,2-b]pyridazin-3-yl)ethynyl)-4-methyl-N-(4-(4-methyl-1H-imidazol-1-yl)-3-(trifluoromethyl)-phenyl)benzamide] | 12.6% | 3.6 nM | – | – | – | – | – | – | 124 to 126 °C
CN1CCN(Cc2ccc(NC(=O)N3CCCC(C#Cc4cnc5cccnn45)C3)cc2C(F)(F)F)CC1 (centres unmarked) [Compound 34, 3-(2-(Imidazo[1,2-b]pyridazin-3-yl)ethynyl)piperidine-N-(4-((4-methylpiperazin-1-yl)methyl)-3-(trifluoromethyl)phenyl)-1-carboxamide] | 12% | – | – | – | – | – | – | – | 65 to 70 °C
CN1CCN(Cc2ccc(NC(=O)N3CCC(C#Cc4cnc5cccnn45)C3)cc2C(F)(F)F)CC1 (centres unmarked) [Compound 35, 3-(2-(Imidazo[1,2-b]pyridazin-3-yl)ethynyl)pyrrolidine-N-(4-((4-methylpiperazin-1-yl)methyl)-3-(trifluoromethyl)phenyl)-1-carboxamide] | 11.3% | – | – | – | – | – | – | – | 83 to 85 °C
